Laboratory results taken from US5811405A (Hoechst Aktiengesellschaft, priority 1996, dated 1998).
Each block holds one compound with its values, some of them ahead of it.

What was measured:
E selectin = molecular target: T1, E selectin (Homo sapiens, UniProt P16581); experiment: HL60 cell adhesion assay on recombinant, soluble E selectin-IgG1 fusion protein; type: cell-based; conditions: HL60 cells
T1 construct: formed from the extracytoplasmic domain of either E selectin or P selectin; made in house; host or cells: COS-7 cells (ATCC), transient transfection with DEAE dextran; secreted into culture supernatant, captured on anti-human IgG
T1 sequence (P16581 22-556): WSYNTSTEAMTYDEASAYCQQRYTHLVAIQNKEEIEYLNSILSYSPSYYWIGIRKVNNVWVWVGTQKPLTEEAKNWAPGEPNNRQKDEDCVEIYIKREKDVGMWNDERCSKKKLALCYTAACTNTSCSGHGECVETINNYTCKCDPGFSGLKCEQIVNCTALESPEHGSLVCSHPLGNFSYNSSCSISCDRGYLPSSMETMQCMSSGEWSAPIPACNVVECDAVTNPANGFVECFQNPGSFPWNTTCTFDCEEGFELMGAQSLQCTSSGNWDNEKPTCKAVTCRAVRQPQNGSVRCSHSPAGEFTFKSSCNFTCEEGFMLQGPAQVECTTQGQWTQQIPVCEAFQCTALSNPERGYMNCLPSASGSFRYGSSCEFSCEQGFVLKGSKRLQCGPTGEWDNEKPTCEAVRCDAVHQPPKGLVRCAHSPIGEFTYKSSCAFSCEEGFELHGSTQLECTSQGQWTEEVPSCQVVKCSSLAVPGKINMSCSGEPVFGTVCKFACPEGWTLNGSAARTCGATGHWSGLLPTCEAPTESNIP
From the text: (§1) Primary assays for investigating the effect of the compounds according to the present invention on the adherence of cells to recombinant, soluble selectin fusion proteins.
(§2) In order to test the efficacy of the compounds according to the invention of the interaction between the E and P selectins (old nomenclature, ELAM-1 and GMP-140, respectively) and their ligands, an assay is used which is in each case specific for only one of these interactions. The ligands are presented in their natural form as surface structures on promyelocytic HL60 cells. […] Recombinantly prepared soluble fusion proteins, formed from the extracytoplasmic domain of either E selectin or P selectin and the constant region of a human immunoglobulin of the IgG1 subclass, were used as binding partners.
Preparation of L selektin-IgG1
The gene construct "ELAM-Rg", published by Walz et al., 1990, was used to prepare soluble […] fusion protein.
For the purposes of expression, the plasmid DNA was transfected into COS-7 cells (ATCC) using DEAE dextran (molecular biological methods: see Ausubel, F. M., Brent, R., Kingston, R. E., Moore, D. D., Seidman, J. G., Struhl, K. and Smith, J. A. 1990. Current Protocols in Molecular Biology, John Wiley, New York). […]

P selectin = molecular target: T2, P selectin (Homo sapiens, UniProt P16109); experiment: HL60 cell adhesion assay on recombinant, soluble P selectin-IgG1 fusion protein; type: cell-based; conditions: HL60 cells
T2 construct: formed from the extracytoplasmic domain of either E selectin or P selectin; made in house; culture supernatant, captured on anti-human IgG
T2 sequence (P16109 42-771): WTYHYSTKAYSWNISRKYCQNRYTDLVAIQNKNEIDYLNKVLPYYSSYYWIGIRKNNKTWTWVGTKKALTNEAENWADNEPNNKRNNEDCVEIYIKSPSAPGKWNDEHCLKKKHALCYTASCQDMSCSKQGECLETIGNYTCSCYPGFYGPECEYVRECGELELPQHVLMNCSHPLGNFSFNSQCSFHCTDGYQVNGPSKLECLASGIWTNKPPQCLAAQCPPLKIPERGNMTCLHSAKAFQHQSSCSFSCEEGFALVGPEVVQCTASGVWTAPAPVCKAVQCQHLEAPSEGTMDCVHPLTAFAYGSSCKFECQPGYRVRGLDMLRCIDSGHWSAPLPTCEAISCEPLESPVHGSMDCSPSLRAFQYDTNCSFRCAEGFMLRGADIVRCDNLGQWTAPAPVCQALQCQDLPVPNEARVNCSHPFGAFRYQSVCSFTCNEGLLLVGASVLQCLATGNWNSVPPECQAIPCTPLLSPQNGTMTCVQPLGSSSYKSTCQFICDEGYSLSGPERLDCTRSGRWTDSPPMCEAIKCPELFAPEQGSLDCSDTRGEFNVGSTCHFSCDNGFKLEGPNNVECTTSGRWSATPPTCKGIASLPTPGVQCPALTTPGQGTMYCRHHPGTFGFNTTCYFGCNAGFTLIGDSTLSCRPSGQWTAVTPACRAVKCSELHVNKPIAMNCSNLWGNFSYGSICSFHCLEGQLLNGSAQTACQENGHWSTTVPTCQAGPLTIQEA
From the text: as §1, §2
Preparation of P selectin-IgG1
The gene construct "CD62Rg", published by Aruffo et al., 1991, is used to prepare the soluble P selectin-IgG1 fusion protein. The subsequent procedure corresponds to the preparation of L selectin-IgG1 which was described in A1. Aruffo, A., Kolanus, W., Walz, G., Fredman, P. and Seed, B. 1991. CD62/-P-Selectin recognition of myeloid and tumor cell sulfatides. Cell 67, 35-44. […]
7. The quantity of BCECF-AM-labeled cells adhering in the wells is measured in a cytofluorimeter (Millipore) at a sensitivity setting of 4, an excitation wavelength of 485/22 nm and an emission wavelength of 530/25 nm.

[1] = test system: adhesion of leukocytes to the endothelium; experiment: Leukocyte adhesion in vivo (intravital microscopy on the rat mesentery, LPS-induced); conditions: 10 mg/kg i.v., SPRD(m) rat, LPS 15 mg/kg 15 min after test substance; vs untreated controls
From the text: Leukocyte adhesion--Examination of the efficacy of the compounds according to the invention in vivo (intravital microscopy on the rat):
The induced adhesion of leukocytes is quantified in the rat mesentery using an intravital microscopic investigation technique (Atherton A. and Born G. V. R., Quantitative investigations of the adhesiveness of circulating polymorphonuclear leukocytes to blood vessel walls. J. Physiol. 222, 447-474, 1972); herein incorporated by reference. A prolonged anesthesia is instituted, under inhalation anesthesia with ether, by injecting urethane ([…] of body weight) intramuscularly. Blood vessels (femoral vein for injection of substances and carotid artery for measuring blood pressure) are exposed by dissection and catheters are then tied into them. After that, the corresponding transparent tissue (mesentery) is exposed spread out on a microscope stage and overlaid with paraffin oil at 37° C. […] The resulting increase in the adhesion of leukocytes to the endothelium is quantified directly by means of vital microscopy or using fluorescence dyes. […] The number of rolling leukocytes (i.e. all leukocytes which are visibly rolling and which are slower than the flowing erythrocytes) and the number of leukocytes which are adhering to the endothelium (dwell time longer than 5 seconds) are recorded every 10 minutes for a period of 60 minutes. […]

neutrophil adhesion = experiment: Reperfusion model on the open rabbit heart (Langendorff), leukocyte accumulation and arrhythmias; conditions: perfused rabbit heart, 30 min ischemia, 30 min reperfusion; vs untreated hearts
Experimental: Reperfusion model for investigating the influence of neutrophil adhesion in the course of ischemialreperfusion carried out on the open rabbit heart.
The hearts are perfused with nutrient solution, and also with/without leukocytes and/or active compound, at constant pressure using the Langendorff technique. After that, an ischemia is elicited by ligating the left coronary artery (30 min). Following reperfusion (30 min), the accumulation of leukocytes is evaluated histologically. During the course of the experiment, potentials and arrhythmias are measured at 256 electrodes (total duration of the experiment, approx. 90 min). […] The compounds according to the present invention, and also their physiologically tolerated salts, are very well suited, owing to their valuable pharmacological properties, for use as medicines in mammals, in particular humans.

selectin receptors = conditions: all known in-vitro test systems; Jacob et al., 1995; read-out: IC50 (inhibition of cell adhesion to selectin receptors); cited from earlier work
[2] = test system: myocardial reperfusion injuries; conditions: M. Buerke et al., 1994; cited from earlier work

- IC50 (E selectin): 500 to 1500 µM
- IC50 (P selectin): 3500 to 4100 µM
Compound: C[C@@H]1O[C@@H](O[C@H](COCCCCCC(C(=O)O)C(=O)O)[C@@H](COCCCCCC(C(=O)O)C(=O)O)O[C@@H]2O[C@@H](C)[C@@H](O)[C@@H](O)[C@@H]2O)[C@@H](O)[C@H](O)[C@@H]1O [Compound 6a, 1,4-bis(5-malonyl-1-pentyloxy)-2,3-bis(α-L-fucopyranosyl)-D-threitol]
- inhibition (of leukocyte adhesion) [1]: 39%

Compound: chondroitin sulfate
- arrhythmias (neutrophil adhesion): fewer arrhythmias
- leukocyte accumulation (neutrophil adhesion): less leukocyte accumulation

Compound: sialyl Lewis X [SLeX]
- IC50 (selectin receptors): ~1000 µM
- use in animal experiments, myocardial reperfusion injuries [2]: used successfully
